The test system of test [1] is MiaPaCa-2. In words: cells. Also noted: ATPlite luminescence viability of PDAC cell lines, 11-dose single-agent curves, 4-parameter fit. To be noted: Homo sapiens, MIA PaCa-2, 72 h, read-out: EC50 [nM]. As to the method: (§1) Afterward, small amounts were transferred to 384-well intermediate plates (Greiner Bio-One GmbH, Germany). […] For drug combination screening, 1000 to 5000 cells were seeded into 384-well plates (CulturPlate™, Perkin Elmer, MA, USA) using a Multidrop™ Combi Reagent Dispenser (Thermo Scientific, MA, USA) in 50 µl medium per well 24 h prior to drug treatment (seeding densities see Appendix Table S1). […] The final DMSO concentration in each well was 0.2%. […] Eight wells per plate without library drug served as negative controls, and sixteen wells per plate containing 5 µM Staurosporine served as positive controls. […] Next, we analyzed the drug sensitivity of immortalized duct cell line HPDE to detect effects unrelated to pancreatic cancer.

Test [2] has as its system AsPC-1. In words: cells. Also noted: Viability of PDAC cell lines, ATPlite luminescence, 11-dose single-agent curve fit. To be noted: Homo sapiens, ASPC1, 72 h, read-out: EC50 [nM]. As to the method:
as §1

Test [3] concerns Suit2-07. Nature of the test: cells. Also noted: Viability of PDAC cell lines, ATPlite luminescence, 11-dose single-agent curve fit. To be noted: 72 h, read-out: EC50 [nM]. As to the method:
as §1

The subject of test [4] is BxPC-3. Nature of the test: cells. Also noted: Viability of PDAC cell lines, ATPlite luminescence, 11-dose single-agent curve fit. As to conditions: Homo sapiens, BXPC-3, 72 h, read-out: EC50 [nM]. As to the method:
as §1

Test [5] relates to HPDE. In words: cells. Also noted: Viability of PDAC cell lines, ATPlite luminescence, 11-dose single-agent curve fit. To be noted: HPDE, 72 h, read-out: EC50 [nM]. As to the method:
as §1

In test [6] the test system is PANC-1. In words: cells. Also noted: Viability of PDAC cell lines, ATPlite luminescence, 11-dose single-agent curve fit. As to conditions: Homo sapiens, PANC-1, 72 h, read-out: EC50 [nM]. As to the method: as §1
In test [7] the test system is Dan-G. Nature of the test: cells. Also noted: Viability of PDAC cell lines, ATPlite luminescence, 11-dose single-agent curve fit. As to conditions: 72 h, read-out: EC50 [nM]. As to the method: as §1
In test [8] the test system is PaTu-8988-T. Nature of the test: cells. Also noted: Viability of PDAC cell lines, ATPlite luminescence, 11-dose single-agent curve fit. To be noted: Homo sapiens, PaTu 8988t, 72 h, read-out: EC50 [nM]. As to the method:
as §1

Test [9] has as its system Colo-357. In words: cells. Also noted: Viability of PDAC cell lines, ATPlite luminescence, 11-dose single-agent curve fit. To be noted: Homo sapiens, COLO357, 72 h, read-out: EC50 [nM]. As to the method:
as §1

Test [10] concerns PSN-1. Nature of the test: cells. Also noted: Viability of PDAC cell lines, ATPlite luminescence, 11-dose single-agent curve fit. To be noted: Homo sapiens, PSN1, 72 h, read-out: EC50 [nM]. As to the method: as §1
The test system of test [11] is Capan-1. Nature of the test: cells. To be noted: Homo sapiens, CAPAN-1, 72 h, read-out: EC50 [nM]. Also noted: Viability of PDAC cell lines, ATPlite luminescence, 11-dose single-agent curve fit. As to the method: as §1
Test [12] has as its system FAMPAC. Nature of the test: cells. Also noted: Viability of PDAC cell lines, ATPlite luminescence, 11-dose single-agent curve fit. To be noted: 72 h, read-out: EC50 [nM]. As to the method:
as §1

Test [13] concerns HuP-T4. In words: cells. As to conditions: Homo sapiens, HuP-T4, 72 h, read-out: EC50 [nM]. Also noted: Viability of PDAC cell lines, ATPlite luminescence, 11-dose single-agent curve fit. As to the method:
as §1

The test system of test [14] is AsPC-1 cells. Nature of the test: Cell proliferation assay, chemodrug + ATR inhibitor (Incucyte confluence, 72 h).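 For all read-outs here: underlying read-out for every value is AsPC-1 confluence after 72 h incubation at 37 °C and 5% CO2, divided by that well's starting confluence.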 As to conditions: for EC50: Homo sapiens.
Procedure: Cells were seeded at 5000 cells/well into 96-well flat bottom plates (Eppendorf) and allowed to attach overnight. […] Cells were incubated for 72 h at 37 °C and 5% CO2. Cell confluence readouts at 72 h were either normalized to their initial confluence using the Incucyte software (AsPC-1) or used without prior normalization (all others). […] Each experiment was performed in triplicates, the data was plotted as mean ± standard deviation (s.d.).
Where [15] appears, read: AsPC-1, Experiment GEM (no ATRi), single replicates R1-R3.
Where [16] appears, read: AsPC-1, Experiment GEM+ATRi_dose1, single replicates R1-R3.
Where [17] appears, read: AsPC-1, Experiment GEM+ATRi_dose2, single replicates R1-R3.
[18] abbreviates: AsPC-1, Experiment GEM+ATRi_dose3, single replicates R1-R3.

Structures are written as SMILES. “And” between values parts separate entries of the source, which are not always exact repeats. Identical values can stand only once. Like-named read-outs stand apart in the source and are kept apart here.

Regarding `CN(C)C(=O)c1cc2cnc(Nc3ccc(N4CCNCC4)cn3)nc2n1C1CCCC1` [Ribociclib], the EC50 was 1280 nM in test [1]; 6480 nM in test [2]; 985 nM in test [3]; 227 nM in [4]; 49.6 nM in [5]; more than 10000 nM in test [6]. Besides, the EC50 in test [7] amounted to 3080 nM; in test [8] it was 9690 nM; in test [9] it was 1280 nM; in test [10], 2250 nM; in [11] it was 491 nM; in test [12], 401 nM. Further, the EC50 in test [13] was 1230 nM.

Turning to `COc1ccc(CN2[C@@H]3C[C@H]2CN(c2ccc(-c4cc(OCC(C)(C)O)cn5ncc(C#N)c45)cn2)C3)cn1` [Selpercatinib], the EC50 in test [1] is 2900 nM; in test [2], 4660 nM; in test [3], 1160 nM; in [4], 2980 nM; in [5], 4930 nM; in test [6], 3470 nM. Also, the EC50 in test [7] was 6000 nM; in test [8], 543 nM; in [9] it was 4280 nM; in test [10], more than 10000 nM; in test [11] it was more than 10000 nM; in [12] it was more than 10000 nM. Further, in test [13], the EC50 came to 72.1 nM.

Consider `O=C1[O][Pt]2([NH][C@@H]3CCCC[C@H]3[NH]2)[O]C1=O` [Oxaliplatin], for which, in [14], the pEC50 is 6.56 and the “sensitization of AsPC-1 cells to the chemodrug by Elimusertib” value is reported as “sensitized”.

With `CNC(=O)c1ccc(-c2cnc3ncc(Cc4ccc5ncccc5c4)n3n2)cc1F` [Capmatinib], the EC50 in [2] is 1.63 nM; in [3] it was 6000 nM; in test [4] it was 323 nM; in [5], 1090 nM; in test [6] it was more than 10000 nM; in test [7] it was 451 nM. The EC50 in test [8] was more than 10000 nM; in [10], 521 nM; in test [11] it was 6320 nM; in test [12] it was 8.91 nM; in test [13], 3120 nM.

On to `Cc1cccc(-c2nn3c(c2-c2ccnc4ccc(C(N)=O)cc24)CCC3)n1` [Galunisertib], for which the EC50 in test [2] was found to be 72.9 nM; in test [3], 3360 nM; in test [4] it was 333 nM; in test [5], 230 nM; in test [6] it was 60.8 nM; in test [7], 47.4 nM. In addition, the EC50 was 98.7 nM in [8]; 302 nM in test [9]; 0.11 nM in test [10]; 151 nM in test [11]; 155 nM in test [12]; 1480 nM in test [13].

Take `CC(=O)O[C@H]1C(=O)[C@@]2(C)[C@H]([C@H](OC(=O)c3ccccc3)[C@]3(O)C[C@H](OC(=O)[C@H](O)[C@@H](NC(=O)c4ccccc4)c4ccccc4)C(C)=C1C3(C)C)[C@]1(OC(C)=O)CO[C@@H]1C[C@@H]2O` [Paclitaxel]: the Curve slope in test [14] (setting [15]) is 1.97 and 2.99 and 2.20; in test [14] (setting [16]), 1.47 and 2.08 and 1.46; in test [14] (setting [17]) it was 2.59 and 1.83 and 1.78; in test [14] (setting [18]), 2.50 and 1.97 and 3.20. Moreover, the Curve top in [14] (setting [15]) was 0.44 and 0.38 and 0.36; in [14] (setting [16]) it was 0.45 and 0.37 and 0.39; in test [14] (setting [17]), 0.45 and 0.38 and 0.37; in test [14] (setting [18]), 0.42 and 0.35 and 0.36. For the same compound, in test [14] (setting [18]), the Curve bottom was 0.92 and 0.80. In addition, the EC50 is 1.89 nM in [14] (ASPC1, 72 h, AsPC-1, Experiment GEM (no ATRi), single replicates R1-R3); 2.09 nM in test [14] (ASPC1, 72 h, read-out: EC50 mean [nM], AsPC-1, Experiment GEM (no ATRi), mean of R1-R3, repeated in each replicate line); 1.91 nM in test [14] (ASPC1, 72 h, read-out: pEC50, AsPC-1 (converted), Experiment GEM (no ATRi), single replicates R1-R3); 2.09 nM in test [14] (ASPC1, read-out: EC50 mean [nM], AsPC-1, Experiment GEM (no ATRi), mean of R1-R3, repeated in each replicate line); 2.62 nM in test [14] (ASPC1, read-out: EC50 mean [nM], AsPC-1, Experiment GEM+ATRi_dose1, mean of R1-R3, repeated in each replicate line); 2.03 nM in test [14] (ASPC1, read-out: EC50 mean [nM], AsPC-1, Experiment GEM+ATRi_dose3, mean of R1-R3, repeated in each replicate line). In addition, the Response in test [14] (chemodrug 1 nM + ATRi 3 nM) is 78.95 and 82.15 and 71.41; in test [14] (chemodrug 1 nM + ATRi 10 nM), 76.45 and 74.25 and 74.55; in test [14] (chemodrug 1 nM + ATRi 30 nM), 75.55 and 68.26 and 64.62; in test [14] (chemodrug 1 nM alone (ATRi 0 nM)) it was 78.71 and 81.33 and 75.17; in [14] (chemodrug 3 nM + ATRi 3 nM), 63.11 and 58.53 and 53.51; in [14] (chemodrug 3 nM + ATRi 10 nM) it was 46.62 and 47.02 and 47.86. The Response in [14] (chemodrug 3 nM + ATRi 30 nM) is 47.65 and 42.95 and 41.75; in test [14] (chemodrug 3 nM alone (ATRi 0 nM)), 51.76 and 52.32 and 44.31; in test [14] (chemodrug 10 nM + ATRi 3 nM), 44.83 and 35.01 and 34.23; in test [14] (chemodrug 10 nM + ATRi 10 nM) it was 38.43 and 33.69 and 33.51; in test [14] (chemodrug 10 nM + ATRi 30 nM), 39.64 and 34.49 and 30.28; in test [14] (chemodrug 10 nM alone (ATRi 0 nM)), 41.65 and 34.17 and 31.46. For the same compound, the Response in test [14] (chemodrug 30 nM + ATRi 3 nM) was 39.42 and 37.16 and 36.82; in test [14] (chemodrug 30 nM + ATRi 10 nM), 50.74 and 48.74 and 42.64; in [14] (chemodrug 30 nM + ATRi 30 nM) it was 37.65 and 29.32 and 30.21; in test [14] (chemodrug 30 nM alone (ATRi 0 nM)), 37.54 and 28.80 and 29.10; in [14] (chemodrug 100 nM + ATRi 3 nM) it was 42.23 and 38.61 and 46.44; in test [14] (chemodrug 100 nM + ATRi 10 nM), 39.32 and 32.95 and 29.28. The Response in [14] (chemodrug 100 nM + ATRi 30 nM) is 43.96 and 36.95 and 33.77; in test [14] (chemodrug 100 nM alone (ATRi 0 nM)), 39.78 and 30.74 and 27.32; in test [14] (chemodrug 300 nM + ATRi 3 nM), 37.81 and 31.67 and 30.77; in [14] (chemodrug 300 nM + ATRi 10 nM), 33.31 and 30.07 and 28.41; in test [14] (chemodrug 300 nM + ATRi 30 nM), 35.70 and 31.17 and 27.41; in test [14] (chemodrug 300 nM alone (ATRi 0 nM)) it was 37.36 and 36.59 and 31.62. Moreover, the Response in test [14] (chemodrug 1000 nM + ATRi 3 nM) is 37.14 and 28.54 and 28.57; in test [14] (chemodrug 1000 nM + ATRi 10 nM), 36.12 and 27.22 and 30.37; in [14] (chemodrug 1000 nM + ATRi 30 nM) it was 34.38 and 27.12 and 28.86; in test [14] (chemodrug 1000 nM alone (ATRi 0 nM)), 37.88 and 33.79 and 33.23; in test [14] (chemodrug 3000 nM + ATRi 3 nM), 36.69 and 27.57 and 27.01; in [14] (chemodrug 3000 nM + ATRi 10 nM) it was 34.07 and 26.83 and 25.03. For the same compound, the Response was 28.21 and 28.84 and 28.63 in test [14] (chemodrug 3000 nM + ATRi 30 nM); 33.73 and 34.70 and 28.11 in [14] (chemodrug 3000 nM alone (ATRi 0 nM)). Further, the “sensitization of AsPC-1 cells to the chemodrug by Elimusertib” value in test [14] (chemodrug + three sub-EC50 doses of Elimusertib) is recorded as “not”.

Usually pEC50 stands for the negative decadic logarithm of the EC50, by convention in mol/L.

For the origin of these results see article PMC11876601 (Molecular Systems Biology, 2025).
